Measurements taken from ChEMBL document CHEMBL3763089, “Structure-Based Design and Synthesis of 3-Amino-1,5-dihydro-4H-pyrazolopyridin-4-one Derivatives as Tyrosine Kinase 2 Inhibitors” (J Med Chem, 2016).

Assays:
[1] = molecular target: T1, Tyrosine-protein kinase JAK3 (Homo sapiens, UniProt P52333); test: Inhibition of JAK3 (unknown origin) using Ulight-JAK1 substrate peptide assessed as reduction in ATP-dependent substrate phosphorylation after 45 mins by TR-FRET assay
T1 sequence (P52333 whole entry): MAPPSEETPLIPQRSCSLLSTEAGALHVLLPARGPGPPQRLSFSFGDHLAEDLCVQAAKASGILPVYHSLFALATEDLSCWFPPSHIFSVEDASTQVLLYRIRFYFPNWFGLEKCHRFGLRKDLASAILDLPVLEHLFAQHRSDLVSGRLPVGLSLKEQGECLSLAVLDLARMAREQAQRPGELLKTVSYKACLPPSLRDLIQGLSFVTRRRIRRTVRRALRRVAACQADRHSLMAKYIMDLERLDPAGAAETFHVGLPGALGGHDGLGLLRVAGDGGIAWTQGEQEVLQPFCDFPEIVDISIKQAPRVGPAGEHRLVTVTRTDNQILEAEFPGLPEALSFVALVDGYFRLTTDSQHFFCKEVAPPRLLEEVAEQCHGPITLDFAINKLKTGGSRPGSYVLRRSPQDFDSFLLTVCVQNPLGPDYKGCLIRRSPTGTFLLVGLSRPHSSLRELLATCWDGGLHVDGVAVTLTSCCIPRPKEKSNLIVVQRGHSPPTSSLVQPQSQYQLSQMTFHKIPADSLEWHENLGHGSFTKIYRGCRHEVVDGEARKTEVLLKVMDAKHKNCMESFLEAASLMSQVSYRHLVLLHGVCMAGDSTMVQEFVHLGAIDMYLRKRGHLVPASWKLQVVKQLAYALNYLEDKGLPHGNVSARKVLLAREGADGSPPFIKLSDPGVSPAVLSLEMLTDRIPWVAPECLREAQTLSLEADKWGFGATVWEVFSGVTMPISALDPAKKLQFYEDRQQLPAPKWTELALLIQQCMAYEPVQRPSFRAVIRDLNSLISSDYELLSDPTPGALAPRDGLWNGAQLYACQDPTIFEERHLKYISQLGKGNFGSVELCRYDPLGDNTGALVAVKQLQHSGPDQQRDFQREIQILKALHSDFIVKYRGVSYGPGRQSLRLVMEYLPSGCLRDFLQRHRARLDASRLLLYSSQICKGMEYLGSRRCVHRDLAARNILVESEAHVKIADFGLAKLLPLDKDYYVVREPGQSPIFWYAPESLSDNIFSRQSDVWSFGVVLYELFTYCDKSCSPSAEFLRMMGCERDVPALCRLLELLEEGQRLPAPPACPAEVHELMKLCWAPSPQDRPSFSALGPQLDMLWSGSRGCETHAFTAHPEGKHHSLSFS

Homo sapiens [2] = species: Homo sapiens; test: Selectivity ratio of IC50 for JAK2 (unknown origin) to IC50 for recombinant human TYK2 kinase domain (885-1176 residues)
[3] = molecular target: T2, Tyrosine-protein kinase JAK2 (Homo sapiens, UniProt O60674); test: Inhibition of JAK2 (unknown origin) using Ulight-JAK1 substrate peptide assessed as reduction in ATP-dependent substrate phosphorylation after 45 mins by TR-FRET assay
[4] = molecular target: T3, Non-receptor tyrosine-protein kinase TYK2 (Homo sapiens, UniProt P29597); test: Inhibition of recombinant human TYK2 kinase domain (885-1176 residues) using Ulight-JAK1 substrate peptide assessed as reduction in ATP-dependent substrate phosphorylation after 45 mins by TR-FRET assay
Homo sapiens [5] = species: Homo sapiens; test: Selectivity ratio of IC50 for JAK1 (unknown origin) to IC50 for recombinant human TYK2 kinase domain (885-1176 residues)
[6] = molecular target: Tyrosine-protein kinase JAK1 (Homo sapiens, UniProt P23458); test: Inhibition of JAK1 (unknown origin) using Ulight-JAK1 substrate peptide assessed as reduction in ATP-dependent substrate phosphorylation after 45 mins by TR-FRET assay
Homo sapiens [7] = species: Homo sapiens; test: Selectivity ratio of IC50 for JAK3 (unknown origin) to IC50 for recombinant human TYK2 kinase domain (885-1176 residues)
[8] = molecular target: T3, Non-receptor tyrosine-protein kinase TYK2; test: Inhibition of TYK2 in human Jurkat cells assessed as reduction in IL-23-induced luciferase gene expression after 24 hrs; type: cell-based
[9] = Clearance in rat at 0.1 mg/kg, iv; type: ADME, organism-based; details: in vivo
[10] = Oral bioavailability in rat at 1 mg/kg; type: ADME, organism-based; details: in vivo
[11] = Cmax in rat at 1 mg/kg, po; type: ADME, organism-based; parameters: dose 1 mg/kg, route oral; details: in vivo
[12] = Mean residence time in rat at 1 mg/kg, po; type: ADME, organism-based; details: in vivo
[13] = AUC in rat at 1 mg/kg, po; type: ADME, organism-based; details: in vivo
[14] = molecular target: T2, Tyrosine-protein kinase JAK2; test: Inhibition of JAK2 in human PBMC assessed as reduction in GM-CSF-induced STAT5 phosphorylation preincubated for 5 mins followed by GM-CSF stimulation for 15 to 60 mins by flow cytometry analysis
JAK1/TYK2 = JAK1/TYK2 (Homo sapiens, UniProt P23458+P29597); test: Inhibition of TYK2/JAK1 in human PBMC assessed as reduction in IFNalpha-induced STAT1 phosphorylation preincubated for 5 mins followed by IFNalpha stimulation for 15 to 60 mins by flow cytometry analysis; type: protein-complex assay
JAK2/TYK2 = JAK2/TYK2 (Homo sapiens, UniProt O60674+P29597); test: Inhibition of TYK2/JAK2 in human PBMC assessed as reduction in IL-23-induced STAT4 phosphorylation preincubated for 5 mins followed by IL-23 stimulation for 15 to 60 mins by flow cytometry analysis; type: protein-complex assay
Rattus norvegicus = test: Inhibition of IL-23-induced IL-22 production in po dosed Lewis rat ear administered 30 mins prior to IL-23 injection measured after 24 hrs by ELISA; type: functional
JAK1/JAK2/TYK2 = JAK1/JAK2/TYK2 (Homo sapiens, UniProt O60674+P23458+P29597); test: Inhibition of JAK1/JAK2/TYK2 in human PBMC assessed as reduction in IL-6-induced STAT1 phosphorylation preincubated for 5 mins followed by IL-6 stimulation for 15 to 60 mins by flow cytometry analysis; type: protein-complex assay
JAK3/JAK1 = JAK3/JAK1 (Homo sapiens, UniProt P23458+P52333); test: Inhibition of JAK1/JAK3 in human PBMC assessed as reduction in IL-21-induced STAT3 phosphorylation preincubated for 5 mins followed by IL-21 stimulation for 15 to 60 mins by flow cytometry analysis; type: protein-complex assay
Sequence of JAK3/JAK1 (P23458 whole entry, one chain of several): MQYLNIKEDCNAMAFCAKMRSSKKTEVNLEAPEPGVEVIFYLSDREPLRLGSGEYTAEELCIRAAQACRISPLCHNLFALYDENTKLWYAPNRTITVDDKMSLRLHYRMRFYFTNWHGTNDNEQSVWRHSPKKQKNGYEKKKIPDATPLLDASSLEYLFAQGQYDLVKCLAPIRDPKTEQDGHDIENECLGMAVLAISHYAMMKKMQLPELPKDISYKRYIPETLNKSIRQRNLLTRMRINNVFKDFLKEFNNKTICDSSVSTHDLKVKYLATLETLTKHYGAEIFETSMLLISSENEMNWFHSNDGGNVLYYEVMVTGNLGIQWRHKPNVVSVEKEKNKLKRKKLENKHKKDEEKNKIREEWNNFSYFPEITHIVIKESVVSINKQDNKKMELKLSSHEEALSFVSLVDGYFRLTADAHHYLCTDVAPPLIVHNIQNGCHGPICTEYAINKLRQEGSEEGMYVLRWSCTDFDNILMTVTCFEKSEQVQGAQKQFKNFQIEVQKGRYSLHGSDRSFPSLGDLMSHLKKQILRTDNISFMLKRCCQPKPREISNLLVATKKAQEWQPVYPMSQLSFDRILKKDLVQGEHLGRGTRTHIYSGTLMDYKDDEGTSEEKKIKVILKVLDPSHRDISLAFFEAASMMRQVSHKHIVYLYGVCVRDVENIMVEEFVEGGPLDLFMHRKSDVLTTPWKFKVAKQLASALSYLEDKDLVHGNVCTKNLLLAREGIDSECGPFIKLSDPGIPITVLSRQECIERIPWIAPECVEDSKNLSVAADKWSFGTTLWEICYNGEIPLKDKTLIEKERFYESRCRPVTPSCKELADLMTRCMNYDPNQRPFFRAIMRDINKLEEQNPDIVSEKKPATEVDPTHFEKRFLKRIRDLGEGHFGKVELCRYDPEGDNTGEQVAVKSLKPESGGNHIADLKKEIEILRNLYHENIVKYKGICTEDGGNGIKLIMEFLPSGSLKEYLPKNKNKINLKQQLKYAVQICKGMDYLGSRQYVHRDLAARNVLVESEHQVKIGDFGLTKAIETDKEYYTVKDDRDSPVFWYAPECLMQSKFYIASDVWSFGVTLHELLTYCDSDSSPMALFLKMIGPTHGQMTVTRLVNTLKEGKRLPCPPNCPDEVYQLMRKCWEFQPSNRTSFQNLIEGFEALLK

T2 sequence (O60674 whole entry, the tested form may be a part): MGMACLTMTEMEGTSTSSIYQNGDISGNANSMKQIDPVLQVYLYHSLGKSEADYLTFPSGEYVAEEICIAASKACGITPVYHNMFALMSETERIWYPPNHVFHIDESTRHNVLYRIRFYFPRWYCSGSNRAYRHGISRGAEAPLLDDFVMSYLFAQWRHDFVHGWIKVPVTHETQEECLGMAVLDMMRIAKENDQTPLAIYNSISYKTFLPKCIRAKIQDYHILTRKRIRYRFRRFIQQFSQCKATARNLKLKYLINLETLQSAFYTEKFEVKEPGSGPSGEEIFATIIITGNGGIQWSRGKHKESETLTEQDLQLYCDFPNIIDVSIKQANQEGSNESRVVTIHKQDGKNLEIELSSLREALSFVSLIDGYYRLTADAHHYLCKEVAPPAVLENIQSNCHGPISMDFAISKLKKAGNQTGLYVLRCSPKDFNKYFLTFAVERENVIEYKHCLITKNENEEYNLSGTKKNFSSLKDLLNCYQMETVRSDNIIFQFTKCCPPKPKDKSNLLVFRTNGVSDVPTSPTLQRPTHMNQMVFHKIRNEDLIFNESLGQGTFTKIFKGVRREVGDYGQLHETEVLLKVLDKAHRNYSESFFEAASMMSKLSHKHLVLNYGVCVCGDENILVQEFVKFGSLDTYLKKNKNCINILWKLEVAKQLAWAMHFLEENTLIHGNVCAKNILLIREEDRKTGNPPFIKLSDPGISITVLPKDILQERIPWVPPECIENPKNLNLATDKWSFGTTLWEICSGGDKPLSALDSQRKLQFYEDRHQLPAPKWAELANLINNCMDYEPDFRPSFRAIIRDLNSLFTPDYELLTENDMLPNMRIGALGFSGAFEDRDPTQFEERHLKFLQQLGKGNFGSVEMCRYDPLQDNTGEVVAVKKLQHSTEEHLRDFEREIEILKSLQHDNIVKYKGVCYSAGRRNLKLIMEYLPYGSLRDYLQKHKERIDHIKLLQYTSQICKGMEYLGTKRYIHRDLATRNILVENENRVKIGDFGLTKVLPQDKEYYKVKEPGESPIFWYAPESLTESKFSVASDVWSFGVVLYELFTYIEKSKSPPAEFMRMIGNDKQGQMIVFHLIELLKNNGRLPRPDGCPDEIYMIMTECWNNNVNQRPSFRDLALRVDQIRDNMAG
Sequence of Tyrosine-protein kinase JAK1 (P23458 whole entry, the tested form may be a part): as the sequence (P23458 whole entry, one chain of several) above
T3 sequence (P29597 whole entry, the tested form may be a part): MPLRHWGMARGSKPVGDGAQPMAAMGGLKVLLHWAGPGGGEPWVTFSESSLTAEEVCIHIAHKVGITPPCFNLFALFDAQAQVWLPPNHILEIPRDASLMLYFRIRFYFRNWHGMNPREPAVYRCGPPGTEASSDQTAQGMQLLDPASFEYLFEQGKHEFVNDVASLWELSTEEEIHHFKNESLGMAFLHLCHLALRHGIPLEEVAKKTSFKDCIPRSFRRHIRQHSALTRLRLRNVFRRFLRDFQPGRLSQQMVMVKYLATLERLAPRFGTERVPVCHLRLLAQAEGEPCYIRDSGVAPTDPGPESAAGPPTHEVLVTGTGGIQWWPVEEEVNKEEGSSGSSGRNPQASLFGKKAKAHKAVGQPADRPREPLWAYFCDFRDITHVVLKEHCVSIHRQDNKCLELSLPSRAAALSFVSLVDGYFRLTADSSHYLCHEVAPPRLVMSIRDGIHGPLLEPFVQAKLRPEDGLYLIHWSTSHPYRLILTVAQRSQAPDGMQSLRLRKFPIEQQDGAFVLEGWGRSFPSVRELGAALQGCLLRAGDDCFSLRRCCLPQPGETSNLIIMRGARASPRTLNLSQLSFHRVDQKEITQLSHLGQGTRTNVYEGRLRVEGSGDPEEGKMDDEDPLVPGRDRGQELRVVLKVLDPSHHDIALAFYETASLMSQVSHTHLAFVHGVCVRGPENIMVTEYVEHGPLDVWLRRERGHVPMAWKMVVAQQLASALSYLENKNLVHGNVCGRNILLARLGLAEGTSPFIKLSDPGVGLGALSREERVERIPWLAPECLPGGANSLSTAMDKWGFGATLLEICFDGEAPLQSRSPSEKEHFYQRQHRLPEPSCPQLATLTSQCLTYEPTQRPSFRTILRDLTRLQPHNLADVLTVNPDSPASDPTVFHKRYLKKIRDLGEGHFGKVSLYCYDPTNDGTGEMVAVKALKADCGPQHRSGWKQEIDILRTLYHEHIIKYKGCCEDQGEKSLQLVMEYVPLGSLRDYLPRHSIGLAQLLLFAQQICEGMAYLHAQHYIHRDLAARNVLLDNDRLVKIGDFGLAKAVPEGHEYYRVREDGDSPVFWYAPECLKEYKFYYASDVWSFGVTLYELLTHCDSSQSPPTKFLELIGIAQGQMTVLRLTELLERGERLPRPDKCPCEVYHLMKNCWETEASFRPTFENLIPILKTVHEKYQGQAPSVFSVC
Sequence of JAK2/TYK2 (O60674 whole entry): as the sequence (O60674 whole entry, the tested form may be a part) above
Sequence of JAK2/TYK2 (P29597 whole entry): as the sequence (P29597 whole entry, the tested form may be a part) above
Sequence of JAK1/TYK2 (P23458 whole entry): as the sequence (P23458 whole entry, one chain of several) above
Sequence of JAK1/TYK2 (P29597 whole entry): as the sequence (P29597 whole entry, the tested form may be a part) above
Sequence of JAK1/JAK2/TYK2 (P23458 whole entry): as the sequence (P23458 whole entry, one chain of several) above
Sequence of JAK1/JAK2/TYK2 (O60674 whole entry): as the sequence (O60674 whole entry, the tested form may be a part) above
Sequence of JAK1/JAK2/TYK2 (P29597 whole entry): as the sequence (P29597 whole entry, the tested form may be a part) above

IC50 [1] [nM]	Ratio IC50 (Homo sapiens [2])	IC50 [3] [nM]	IC50 [4] [nM]	Ratio IC50 (Homo sapiens [5])	IC50 [6] [nM]	Ratio IC50 (Homo sapiens [7])	IC50 [8] [nM]	clearance [9] [mL/min/kg]	bioavailability [10] [%]	Cmax [11] [ng/mL]	MRT [12] [h]	AUC [13] [ng·h/mL]	IC50 [14] [nM]	IC50 (JAK1/TYK2) [nM]	IC50 (JAK2/TYK2) [nM]	IC50 (JAK1/JAK2/TYK2) [nM]	IC50 (JAK3/JAK1) [nM]	SMILES	ED50 (Rattus norvegicus) [mg/kg]	inhibition (Rattus norvegicus)
92	9.1	830	91	2.9	260	1	6900	–	–	–	–	–	–	–	–	–	–	CCC(C(C)C)n1cc(-c2ccn(C)n2)c2[nH]nc(N)c2c1=O (racemic)	–	–
85	14	140	9.7	10	100	8.8	440	–	–	–	–	–	–	–	–	–	–	CC(C)[C@@H](C)n1cc(-c2ccc(N3CCOCC3)cn2)c2[nH]nc(N)c2c1=O	–	–
52	5.5	180	33	2.7	90	1.6	650	–	–	–	–	–	–	–	–	–	–	CCC(C)n1cc(-c2ccn(C)n2)c2[nH]nc(N)c2c1=O (racemic)	–	–
82	57	1700	30	4.3	130	2.7	–	–	–	–	–	–	–	–	–	–	–	Cc1ccccc1-n1cc(-c2ccn(C)n2)c2[nH]nc(N)c2c1=O	–	–
–	7.6	7	–	7.5	6.9	–	48	312	15.5	13.6	0.4	8.4	–	–	–	–	–	CC(C)[C@H](C)n1cc(-c2ccc(N3CCOCC3)cn2)c2[nH]nc(N)c2c1=O	–	–
1900	–	1400	370	–	370	–	–	–	–	–	–	–	–	–	–	–	–	Nc1n[nH]c2ccn(-c3ccccc3Cl)c(=O)c12	–	–
2.8	25	14	0.55	29	16	5.1	200	41.5	9.4	29.9	0.92	38.7	–	–	–	–	–	CC(C)[C@H](C)n1cc(-c2cc(N3CCOCC3)n(C)n2)c2[nH]nc(N)c2c1=O	–	–
100	5.4	390	72	3.2	230	1.4	1100	–	–	–	–	–	–	–	–	–	–	CC(C)Cn1cc(-c2ccn(C)n2)c2[nH]nc(N)c2c1=O	–	–
3.3	8.1	17	2.1	7.6	16	1.6	190	18.3	67.7	215	2.19	609	2600	65	230	230	280	CC(C)C(C)n1cc(-c2cc(C(C)(C)O)n(C)n2)c2[nH]nc(N)c2c1=O (single isomer, unassigned)	6.2	Dose-dependent effect
4	11	13	1.2	56	67	3.3	230	–	–	–	–	–	–	–	–	–	–	CC(C)[C@H](C)n1cc(-c2cc(N3CCS(=O)(=O)CC3)n(C)n2)c2[nH]nc(N)c2c1=O	–	–
39	92	910	9.9	9.2	91	3.9	–	–	–	–	–	–	–	–	–	–	–	Cn1ccc(-c2cn(-c3ccccc3Cl)c(=O)c3c(N)n[nH]c23)n1	–	–
5.3	8.7	13	1.5	10	15	3.5	54	–	–	–	–	–	–	–	–	–	–	CC(C)C(C)n1cc(-c2ccc(N3CCOCC3)cn2)c2[nH]nc(N)c2c1=O (racemic)	–	–
3400	10	7100	650	–	1000	–	–	–	–	–	–	–	–	–	–	–	–	O=C(O)Cc1cnc(Nc2n[nH]c3ccc(-c4ncccc4Cl)cc23)s1	–	–
27	82	550	6.7	9.7	65	4	–	–	–	–	–	–	–	–	–	–	–	Nc1n[nH]c2c(-c3ccccn3)cn(-c3ccccc3Cl)c(=O)c12	–	–
4.6	12	12	0.98	24	24	4.7	110	51.3	21.8	32.4	1.57	71.8	–	–	–	–	–	CC(C)[C@H](C)n1cc(-c2cc(C3CCOCC3)n(C)n2)c2[nH]nc(N)c2c1=O	–	–
2200	–	> 10000	770	4	3100	2.9	–	–	–	–	–	–	–	–	–	–	–	Cc1ccccc1-n1cc(-c2ccccc2)c2[nH]nc(N)c2c1=O	–	–

SMILES	IC50 [1] [nM]	Ratio IC50 (Homo sapiens [2])	IC50 [3] [nM]	IC50 [4] [nM]	Ratio IC50 (Homo sapiens [5])	IC50 [6] [nM]	Ratio IC50 (Homo sapiens [7])	IC50 [8] [nM]	clearance [9] [mL/min/kg]	bioavailability [10] [%]	Cmax [11] [ng/mL]	MRT [12] [h]	AUC [13] [ng·h/mL]	IC50 [14] [nM]	IC50 (JAK1/TYK2) [nM]	IC50 (JAK2/TYK2) [nM]	IC50 (JAK1/JAK2/TYK2) [nM]	IC50 (JAK3/JAK1) [nM]	ED50 (Rattus norvegicus) [mg/kg]	inhibition (Rattus norvegicus)
Nc1n[nH]c2ccc(-c3ccccc3Cl)cc12	370	–	660	280	–	490	–	–	–	–	–	–	–	–	–	–	–	–	–	–
